According to patent publication US20160220590A1, “Formulations and Dosage Forms of Oxidized Phospholipids” (Vascular Biogenics Ltd., priority 2011, published 2016):

What was measured:
[1] = oral, daily dosages of 80 mg VB-201 per day or less; cited from earlier work
[2] = Solubility of VB-201 in molten PEG6000; assay type: physicochemical; settings: 65° C. to 105° C., 30 hours; no detectable VB-201
Method: Nine pieces of caked, non-ground VB-201 were submerged in molten PEG6000 at 65° C. and stirred slowly using a paddle mixer. The mix was held for approximately two hours at this temperature, examined visually for the dissolution state of the VB-201, and three samples of the liquid PEG6000 were then taken for analysis. The temperature was then raised by 10° C. and the process was repeated. The process was repeated in 10° C. steps until the mix reached a final temperature of 105° C. The entire process lasted 30 hours.
After 30 hours and at a temperature of 105° C., the PEG6000 had slowly turned lightly yellow (normal for prolonged heating of PEG6000 in air), yet there was no significant visible dissolution of VB-201 or reduction in size of the VB-201 pieces. After taking the final analytical samples the VB-201 pieces were removed from the melt, dried from PEG6000, and weighed.

[3] = Aqueous solubility of VB-201; assay type: physicochemical; settings: at each tested pH: 0.1 M HCl (pH 1), 50 mM phosphate buffers (pH 5 and 7)
Method: The aqueous solubility of VB-201 was determined by suspending VB-201 in aqueous solutions of 0.1 M HCl (pH 1) or in 50 mM phosphate buffers (pH 5 and 7). After initial hand mixing, the preparations were further mixed by vortexing and bath sonication to try to bring about dissolution of the drug. Optical microscopy was used to examine for the presence of undissolved material. […] Thus, VB-201′ is relatively water-soluble.

[4] = Solubility of VB-201 in Lauroglycol FCC; assay type: physicochemical; settings: in Lauroglycol FCC (propylene glycol laurate)
Excerpt: (§1) VB-201 was also found to be stable in Lauroglycol FCC over the course of 66 days (data not shown).

[5] = Pharmacokinetic study, single oral dose of 40 mg VB-201 to human subjects; assay type: in vivo; settings: single oral dose 40 mg VB-201, in all subjects
Method: Pharmacokinetic studies were performed using two different VB-201 formulations (formulation 10 of Example 13 and formulation 4 of Example 11). Single oral doses of 40 mg VB-201 were administered to 26 human subjects for each formulation, and the VB-201 plasma concentrations were measured for a period of 144 hours after dosing for each subject.

[6] = Stability of VB-201 in Lauroglycol FCC; assay type: physicochemical; settings: over the course of 66 days; data not shown
Excerpt: as §1

For CCCCCCCCCCCCCCCCOCC(COP(=O)([O-])OCC[N+](C)(C)C)OCCCCC(=O)O (stereo not drawn) [VB-201, 1-hexadecyl-2-(4′-carboxybutyl)-glycero-3-phosphocholine], the safety and tolerability [1] is listed as “safe, well-tolerated”, the “VB-201 concentration in molten PEG6000” value [2] is listed as less than 0.5 mg/gram and the “aqueous solubility of VB-201” value [3] is listed as greater than 225 mg/gram. The “solubility of VB-201 in Lauroglycol FCC” value [4] was “at least 255 mg per gram”, the “time VB-201 plasma concentrations were above the assay limit of quantification” value [5] was “at least 96 hours” and the “stability in Lauroglycol FCC” value [6] was “stable”.
